The text below walks through data of patent US5338725A, “Anti-aggregatory agents for platelets” (The Research Foundation of the State University of New York, priority 1992, dated 1994).

Starred links: 1 amine or outer side, 2 acyl side, 3 side chain; linkers in the order of their positions; H or OH if unused. Positions of bridges follow the written chain, without caps; N, C: chain ends. Non-standard residues stand in square brackets, D forms with d. Residues, ends and D or L forms follow the SMILES beside them. Chains are numbered I, II in the order given. X1 = NC(=O)c1cc(N[*:1])cc(N[*:2])c1; Adipoyl = O=C(CCCCC(=O)[*:2])[*:1]; Glutaryl = O=C(CCCC(=O)[*:2])[*:1]; 3Abz = Nc1cccc(C(=O)O)c1; 4Abz = Nc1ccc(C(=O)O)cc1; 2Abz = Nc1ccccc1C(=O)O

human platelet-rich plasma, sequence (P08514 32-1039): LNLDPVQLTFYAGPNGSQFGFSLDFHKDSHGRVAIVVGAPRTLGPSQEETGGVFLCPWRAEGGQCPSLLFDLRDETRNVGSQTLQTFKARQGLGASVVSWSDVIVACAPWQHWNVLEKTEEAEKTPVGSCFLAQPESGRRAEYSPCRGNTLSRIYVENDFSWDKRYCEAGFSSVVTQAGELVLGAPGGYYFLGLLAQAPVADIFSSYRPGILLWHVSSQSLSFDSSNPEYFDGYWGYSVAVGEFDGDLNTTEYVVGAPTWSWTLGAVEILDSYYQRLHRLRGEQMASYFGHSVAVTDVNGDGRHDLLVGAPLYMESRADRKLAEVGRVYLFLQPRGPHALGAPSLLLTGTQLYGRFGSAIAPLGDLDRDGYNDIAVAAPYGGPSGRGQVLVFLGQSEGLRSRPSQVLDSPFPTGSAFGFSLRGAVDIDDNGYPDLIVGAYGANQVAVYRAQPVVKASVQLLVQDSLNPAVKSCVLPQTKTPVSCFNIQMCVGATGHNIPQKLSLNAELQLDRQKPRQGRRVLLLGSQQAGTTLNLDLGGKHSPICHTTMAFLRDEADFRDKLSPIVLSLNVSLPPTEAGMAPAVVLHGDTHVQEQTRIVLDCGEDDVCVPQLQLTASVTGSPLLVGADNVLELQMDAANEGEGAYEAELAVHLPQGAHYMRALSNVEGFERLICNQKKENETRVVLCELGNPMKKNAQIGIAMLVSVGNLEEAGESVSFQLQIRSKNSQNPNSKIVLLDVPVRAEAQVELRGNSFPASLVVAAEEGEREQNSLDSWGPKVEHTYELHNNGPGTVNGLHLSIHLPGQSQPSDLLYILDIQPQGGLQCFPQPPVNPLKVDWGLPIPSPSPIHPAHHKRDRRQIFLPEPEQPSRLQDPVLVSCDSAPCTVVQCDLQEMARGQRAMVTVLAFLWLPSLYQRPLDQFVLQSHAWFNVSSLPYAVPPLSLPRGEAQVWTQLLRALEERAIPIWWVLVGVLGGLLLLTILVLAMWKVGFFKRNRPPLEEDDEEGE
human platelet-rich plasma, sequence (P05106 27-788): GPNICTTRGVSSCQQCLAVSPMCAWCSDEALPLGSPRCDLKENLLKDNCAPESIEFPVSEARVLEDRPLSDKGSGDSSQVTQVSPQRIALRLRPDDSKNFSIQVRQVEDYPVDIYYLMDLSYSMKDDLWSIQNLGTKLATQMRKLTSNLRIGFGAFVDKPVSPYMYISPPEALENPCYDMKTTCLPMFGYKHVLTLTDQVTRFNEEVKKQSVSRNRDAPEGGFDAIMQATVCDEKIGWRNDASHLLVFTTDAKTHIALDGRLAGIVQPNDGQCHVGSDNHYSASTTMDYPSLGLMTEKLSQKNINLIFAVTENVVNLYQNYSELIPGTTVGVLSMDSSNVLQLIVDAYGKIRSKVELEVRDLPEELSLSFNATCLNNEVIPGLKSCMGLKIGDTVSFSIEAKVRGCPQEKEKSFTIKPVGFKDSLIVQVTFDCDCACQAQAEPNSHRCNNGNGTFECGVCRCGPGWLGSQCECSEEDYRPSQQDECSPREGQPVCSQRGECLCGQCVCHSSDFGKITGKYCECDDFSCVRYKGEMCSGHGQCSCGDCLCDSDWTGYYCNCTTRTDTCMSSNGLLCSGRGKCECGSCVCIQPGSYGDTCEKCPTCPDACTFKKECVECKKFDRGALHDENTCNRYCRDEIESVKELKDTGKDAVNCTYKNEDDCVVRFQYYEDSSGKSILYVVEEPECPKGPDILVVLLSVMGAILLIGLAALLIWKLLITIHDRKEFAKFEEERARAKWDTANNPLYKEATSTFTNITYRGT

This experiment concerns the target human platelet-rich plasma (Homo sapiens, UniProt P05106+P08514). In words: In vitro inhibition of ADP-induced aggregation of human platelet-rich plasma (Coller assay). The settings on record: adjusted for fibrinogen concentration (ca. 30 times lower than Coller assay value; 0.1 mg/mL fibrinogen). Format: cell-based. The procedure: 1. In vitro Inhibition of Aggregation of Human Platelet-Rich Plasma
Whole blood (10 ml) was collected from human volunteers and anticoagulated by addition of […] of 40% sodium citrate. Platelet-rich plasma (PRP) was prepared by low speed centrifugation (700 G for 3.5 min at 22° C.). The PRP was removed and the remaining blood was centrifuged at 2000 G for 10 min at 22 ° C. to obtain platelet poor plasma (PPP). The PRP was diluted with PPP to give a final platelet count of 300 000μL with a Coulter Acounter Model ZM (Coulter, Hialeah, Fla.). This diluted PRP (400μL) was placed in a siliconized glass cuvette equipped with a magnetic stirrer and stirred at 1200 rpm at 37° C. Various concentrations of the peptides (36μL) in TRIS buffer (0.01 M TRIS, 0.15 M NaCl, and 0.05% sodium azide, pH 7.4) was added and incubated for 3 rain before platelet aggregation was induced by addition of 54μL of 100μM ADP in HEPES buffer (0.01 M HEPES and 0.15 M NaCl, pH 7.5). The platelet aggregation was determined by a change in light transmission through the PRP on a Lumi Aggregometer 400rS (ChronoLog, Hayertown, PA). The ability of the peptides to inhibit platelet aggregation was evaluated and the IC50 was determined as the concentration of peptide required to produce 50% inhibition of the response to ADP in the presence of the TRIS buffer.
The assay system developed by Coller, which is used throughout the experiment, is different from conventional assay systems in certain aspects. First, the platelets used by Plow et al., Blood, 70, 110 (1987); and Garsky et al., Proc. Natl. Acad. Sci. U.S.A., 86, 4022 (1989) are gel-filtered to remove plasma proteins. Since the gel-filtration treatment may decrease the reactivity of the platelets, our assay avoids this step. The platelet count is adjusted by simply mixing PRP and PPP, which minimizes alterations of the platelets. Second, fibrinogen concentration in the Coller system is different from that of others. As shown in the experimental description of the assay, PRP was obtained from fresh blood and used immediately without further manipulation except for count adjustment. According to measurements obtained using this assay, such plasma contains ca. 3 mg of fibrinogen per 1 mL of plasma. On the other hand, fibrinogen concentration used in the Garsky and Plow assay system is 0.1 mg/mL. The concentration of fibrinogen affects the amount of RGD peptide required to inhibit platelet aggregation, with higher fibrinogen concentrations resulting in higher IC50 values. If there is a linear relationship between these two parameters, the IC50 values obtained from the Coller assay should be ca. 30 times larger than those obtained from the Plow et al. assay or the Garsky et al. assay. The adjusted IC50 values are presented in column 4 of Table showing the inhibitory activities of RGD peptides.
The following peptides were synthesized, and their amino acid contents were analyzed as described in procedures 3-7, above. In addition, their ability to inhibit aggregation of human platelet rich plasma was assessed as described in procedures 1 and 2, above. Their respective IC50 values, as well as their estimated IC50 adjusted to the values according the method of Plow et al., (vide supra) are listed in Table 1.
`N=C(N)NCCC[C@H](NC(=O)C1CC(NC(=O)[C@H](Cc2ccccc2)NC(=O)[C@H](CC(=O)O)NC(=O)CNC(=O)[C@@H](N)CCCNC(=N)N)CC(NC(=O)[C@H](Cc2ccccc2)NC(=O)[C@H](CC(=O)O)NC(=O)CNC(=O)[C@@H](N)CCCNC(=N)N)C1)C(=O)NCC(=O)N[C@@H](CC(=O)O)C(=O)N[C@@H](Cc1ccccc1)C(=O)O` (stereo partly shown) [Example 16, (RGDF)2 Dac--RGDF--OH]: the “IC50 (M)* Estimated IC50 adjusted to the values by the method of Plow et al.” value (shortened to “IC50 (M)* Estimated IC50 adjusted”) is 7.2e-07 M. Under `N=C(N)NCCC[C@H](N)C(=O)NCC(=O)N[C@@H](CC(=O)O)C(=O)N[C@@H](Cc1ccccc1)C(=O)N1CCC[C@H]1C(=O)NCC(=O)Nc1cc(NC(=O)CNC(=O)[C@@H]2CCCN2C(=O)[C@H](Cc2ccccc2)NC(=O)[C@H](CC(=O)O)NC(=O)CNC(=O)[C@@H](N)CCCNC(=N)N)cc(C(N)=O)c1` [Example 2, (RGDFPG)2 Dab--NH2] (I: H-RGDFPG / II: H-RGDFPG; linker I:C-II:C via X1; N-terminus assumed) stands 4.2e-07 M; under `N=C(N)NCCC[C@H](NC(=O)c1ccccc1)C(=O)NCC(=O)N[C@@H](CC(=O)O)C(=O)N[C@@H](Cc1ccccc1)C(=O)NCCCC[C@H](NC(=O)[C@H](Cc1ccccc1)NC(=O)[C@H](CC(=O)O)NC(=O)CNC(=O)[C@H](CCCNC(=N)N)NC(=O)c1ccccc1)C(N)=O` [Example 7, (BzRGDF)2 Lys--NH2], 2.9e-07 M. With `N=C(N)NCCC[C@H](NC(=O)CN)C(=O)NCC(=O)N[C@@H](CC(=O)O)C(=O)N[C@@H](Cc1ccccc1)C(=O)NCC(=O)Nc1ccc(C(=O)NCC(=O)N[C@@H](CCCNC(=N)N)C(=O)NCC(=O)N[C@@H](CC(=O)O)C(=O)N[C@@H](Cc2ccccc2)C(N)=O)cc1` [Example 24, GRGDFG--(p)Abz--GRGDF--NH2] (H-GRGDFG[4Abz]GRGDF-NH2), the “IC50 (M)* Estimated IC50 adjusted” value is 2.1e-06 M. On to `CC(C)[C@H](NC(=O)[C@H](CC(=O)O)NC(=O)CNC(=O)[C@H](CCCNC(=N)N)NC(=O)CN)C(=O)NCC(=O)Nc1cccc(C(=O)NCC(=O)N[C@@H](CCCNC(=N)N)C(=O)NCC(=O)N[C@@H](CC(=O)O)C(=O)N[C@@H](Cc2ccccc2)C(N)=O)c1` [Example 29, GRGDVG--(m)Abz--GRGDF--NH2] (H-GRGDVG[3Abz]GRGDF-NH2), for which the “IC50 (M)* Estimated IC50 adjusted” value was 1.5e-06 M. Under `N=C(N)NCCC[C@H](NC(=O)CN)C(=O)NCC(=O)N[C@@H](CC(=O)O)C(=O)N[C@@H](Cc1ccccc1)C(=O)NCC(=O)Nc1ccccc1C(=O)NCC(=O)N[C@@H](CCCNC(=N)N)C(=O)NCC(=O)N[C@@H](CC(=O)O)C(=O)N[C@@H](Cc1ccccc1)C(N)=O` [Example 22, GRGDFG-(o)Abz--GRGDF--NH2] (H-GRGDFG[2Abz]GRGDF-NH2) stands 3.1e-06 M. Under `N=C(N)NCCC[C@H](NC(=O)CN)C(=O)NCC(=O)N[C@@H](CC(=O)O)C(=O)N[C@@H](CO)C(=O)NCC(=O)Nc1ccc(C(=O)NCC(=O)N[C@@H](CCCNC(=N)N)C(=O)NCC(=O)N[C@@H](CC(=O)O)C(=O)N[C@@H](Cc2ccccc2)C(N)=O)cc1` [Example 27, GRGDSG-(p)Abz--GRGDF--NH2] (H-GRGDSG[4Abz]GRGDF-NH2) stands 1.7e-06 M. To `N=C(N)NCCC[C@H](NC(=O)CN)C(=O)NCC(=O)N[C@@H](CC(=O)O)C(=O)N[C@@H](Cc1ccccc1)C(=O)NCCC[C@H](NC(=O)[C@H](Cc1ccccc1)NC(=O)[C@H](CC(=O)O)NC(=O)CNC(=O)[C@H](CCCNC(=N)N)NC(=O)CN)C(=O)NCC(=O)N[C@@H](CCCNC(=N)N)C(=O)NCC(=O)N[C@@H](CC(=O)O)C(=O)N[C@@H](Cc1ccccc1)C(N)=O` [Example 18, (GRGDF)2 Orn--GRGDF--NH2] belongs 2.1e-06 M; to `N=C(N)NCCC[C@H](NC(=O)CCCCC(=O)N[C@@H](CCCNC(=N)N)C(=O)NCC(=O)N[C@@H](CC(=O)O)C(=O)N[C@@H](Cc1ccccc1)C(=O)O)C(=O)NCC(=O)N[C@@H](CC(=O)O)C(=O)N[C@@H](Cc1ccccc1)C(=O)O` [Example 14, Bda(RGDF--OH)2] (I: RGDF-OH / II: RGDF-OH; linker I:N-II:N via Adipoyl), 4.7e-07 M. In the case of `CCCCCC(=O)N[C@@H](CCCNC(=N)N)C(=O)NCC(=O)N[C@@H](CC(=O)O)C(=O)N[C@@H](Cc1ccccc1)C(=O)NCCCC[C@H](NC(=O)[C@H](Cc1ccccc1)NC(=O)[C@H](CC(=O)O)NC(=O)CNC(=O)[C@H](CCCNC(=N)N)NC(=O)CCCCC)C(N)=O` [Example 8, (HexRGDF)2 Lys--NH2], the “IC50 (M)* Estimated IC50 adjusted” value is 7.6e-08 M. For the compound `N=C(N)NCCC[C@H](N)C(=O)NCC(=O)N[C@@H](CC(=O)O)C(=O)N[C@@H](Cc1ccccc1)C(=O)NCCCC[C@H](NC(=O)[C@H](Cc1ccccc1)NC(=O)[C@H](CC(=O)O)NC(=O)CNC(=O)[C@@H](N)CCCNC(=N)N)C(N)=O` [Example 3, (RGDF)2 Lys--NH2], the “IC50 (M)* Estimated IC50 adjusted” value is 1.2e-06 M. For `N=C(N)NCCC[C@H](NC(=O)CN)C(=O)NCC(=O)N[C@@H](CC(=O)O)C(=O)N[C@@H](CO)C(=O)NCC(=O)Nc1cccc(C(=O)NCC(=O)N[C@@H](CCCNC(=N)N)C(=O)NCC(=O)N[C@@H](CC(=O)O)C(=O)N[C@@H](Cc2ccccc2)C(N)=O)c1` [Example 26, GRGDSG--(m)Abz--GRGDF--NH2] (H-GRGDSG[3Abz]GRGDF-NH2), the “IC50 (M)* Estimated IC50 adjusted” value is 3e-06 M. To `CC(C)[C@H](NC(=O)[C@H](CC(=O)O)NC(=O)CNC(=O)[C@H](CCCNC(=N)N)NC(=O)CN)C(=O)NCC(=O)Nc1ccccc1C(=O)NCC(=O)N[C@@H](CCCNC(=N)N)C(=O)NCC(=O)N[C@@H](CC(=O)O)C(=O)N[C@@H](Cc1ccccc1)C(N)=O` [Example 28, GRGDVG--(o)Abz--GRGDF--NH2] (H-GRGDVG[2Abz]GRGDF-NH2) belongs 3.1e-06 M; to `N=C(N)NCCC[C@H](NC(=O)CN)C(=O)NCC(=O)N[C@@H](CC(=O)O)C(=O)N[C@@H](Cc1ccccc1)C(=O)NCCC[C@H](NC(=O)[C@H](Cc1ccccc1)NC(=O)[C@H](CC(=O)O)NC(=O)CNC(=O)[C@H](CCCNC(=N)N)NC(=O)CN)C(N)=O` [Example 5, (GRGDF)2 Orn--NH2], 4.4e-06 M. Take `N=C(N)NCCC[C@H](NC(=O)CCCC(=O)N[C@@H](CCCNC(=N)N)C(=O)NCC(=O)N[C@@H](CC(=O)O)C(=O)N[C@@H](Cc1ccccc1)C(=O)O)C(=O)NCC(=O)N[C@@H](CC(=O)O)C(=O)N[C@@H](Cc1ccccc1)C(=O)O` [Example 13, Pda (RGDF--OH)2] (I: RGDF-OH / II: RGDF-OH; linker I:N-II:N via Glutaryl): the “IC50 (M)* Estimated IC50 adjusted” value was 5e-07 M. Under `N=C(N)NCCC[C@H](NC(=O)CN)C(=O)NCC(=O)N[C@@H](CC(=O)O)C(=O)N[C@@H](Cc1ccccc1)C(=O)NCC(=O)Nc1ccc(C(=O)NCC(=O)N[C@@H](CCCNC(=N)N)C(=O)NCC(=O)N[C@@H](CC(=O)O)C(=O)N[C@@H](Cc2ccccc2)C(=O)O)cc1` [Example 21, GRGDFG--(p)Abz--GRGDF--OH] (H-GRGDFG[4Abz]GRGDF-OH) stands 1.2e-06 M.
